Measured values published in PubChem BioAssay AID248 (DTP/NCI, 2004).
“And” between values parts separate entries of the source, which are not always exact repeats. Equal entries are not always repeated. Inconclusive results and toxic doses are left out. Rule as the data show it: active = T/C of 150% or more; inactive = T/C below 125%.

Test system: L1210 leukemia ip in BDF1 mice, survival T/C
Assay: NCI In Vivo Anticancer Drug Screen. Data for tumor model L1210 Leukemia (intraperitoneal) in B6D2F1 (BDF1) mice
Conditions: endpoint: mean survival time, higher = longer survival
Outline: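 Value reflects the ratio of survival in compound-treated mice to survival in vehicle-treated controls, with both groups carrying the same transplanted tumor.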

[1] = dose: 100.0 mg/kg/injection, schedule: Q04DX003 (ip), vehicle: saline with Tween-80
[2] = dose: 200.0 mg/kg/injection, schedule: Q04DX003 (ip), vehicle: saline with Tween-80
[3] = dose: 100.0 mg/kg/injection, schedule: Q01DX001 (ip), vehicle: Klucel (hydroxypropylcellulose) (HPC)
[4] = dose: 100.0 mg/kg/injection, schedule: Q04DX003 (ip), vehicle: Klucel (hydroxypropylcellulose) (HPC)
[5] = dose: 200.0 mg/kg/injection, schedule: Q01DX001 (ip), vehicle: Klucel (hydroxypropylcellulose) (HPC)
[6] = dose: 100.0 mg/kg/injection, schedule: Q01DX001 (ip), vehicle: saline
[7] = dose: 200.0 mg/kg/injection, schedule: Q01DX001 (ip), vehicle: saline
[8] = dose: 400.0 mg/kg/injection, schedule: Q01DX001 (ip), vehicle: saline
[9] = dose: 100.0 mg/kg/injection, schedule: Q01DX009 (ip), vehicle: saline with Tween-80
[10] = dose: 200.0 mg/kg/injection, schedule: Q01DX009 (ip), vehicle: saline with Tween-80

Measured: T/C

CCOC1=C(Cl)C(=O)C(OCC)=C(Cl)C1=O
inactive: dose: 4.0 mg/kg/injection, schedule: Q04DX003 (ip), vehicle: DMSO 98 % of control | dose: 6.0 mg/kg/injection, schedule: Q04DX003 (ip), vehicle: DMSO 98 % of control | dose: 9.0 mg/kg/injection, schedule: Q04DX003 (ip), vehicle: DMSO 96 % of control and 86 % of control | dose: 75.0 mg/kg/injection, schedule: Q01DX001 (ip), vehicle: alcohol 92 % of control | dose: 150.0 mg/kg/injection, schedule: Q01DX001 (ip), vehicle: alcohol 97 % of control

N#CC(O)C1(O)CCCCC1 (stereo not given)
inactive: dose: 6.25 mg/kg/injection, schedule: Q04DX003 (ip), vehicle: saline sonified 101 % of control | dose: 12.5 mg/kg/injection, schedule: Q04DX003 (ip), vehicle: saline sonified 101 % of control | dose: 25.0 mg/kg/injection, schedule: Q04DX003 (ip), vehicle: saline sonified 94 % of control

Cc1ccc(S(=O)(=O)NC(Cc2ccccc2)C(=O)CCl)cc1 (stereo not given)
inactive: [1] 92 % of control | [2] 92 % of control

Nc1nc(-c2ccccc2)c(CCCOc2ccccc2)c(=O)[nH]1
inactive: dose: 12.5 mg/kg/injection, schedule: Q01DX009 (ip), vehicle: gum acacia 95 % of control | dose: 25.0 mg/kg/injection, schedule: Q01DX009 (ip), vehicle: gum acacia 109 % of control | dose: 50.0 mg/kg/injection, schedule: Q01DX009 (ip), vehicle: gum acacia 100 % of control | dose: 100.0 mg/kg/injection, schedule: Q01DX009 (ip), vehicle: gum acacia 92 % of control and 90 % of control | dose: 400.0 mg/kg/injection, schedule: Q01DX009 (ip), vehicle: gum acacia 96 % of control

Nc1nc(Br)c(Br)nc1C(=O)O
inactive: dose: 12.5 mg/kg/injection, schedule: Q01DX009 (ip), vehicle: Klucel (hydroxypropylcellulose) (HPC) 101 % of control and 103 % of control | dose: 25.0 mg/kg/injection, schedule: Q01DX009 (ip), vehicle: Klucel (hydroxypropylcellulose) (HPC) 97 % of control | dose: 50.0 mg/kg/injection, schedule: Q01DX001 (ip), vehicle: Klucel (hydroxypropylcellulose) (HPC) 101 % of control | dose: 50.0 mg/kg/injection, schedule: Q01DX009 (ip), vehicle: Klucel (hydroxypropylcellulose) (HPC) 95 % of control and 91 % of control | dose: 50.0 mg/kg/injection, schedule: Q04DX002 (ip), vehicle: Klucel (hydroxypropylcellulose) (HPC) 104 % of control | dose: 50.0 mg/kg/injection, schedule: Q04DX003 (ip), vehicle: Klucel (hydroxypropylcellulose) (HPC) 103 % of control | [3] 102 % of control | dose: 100.0 mg/kg/injection, schedule: Q04DX002 (ip), vehicle: Klucel (hydroxypropylcellulose) (HPC) 100 % of control | [4] 106 % of control | [5] 96 % of control

[O-]/[N+](=C\c1ccccc1)c1ccccc1
inactive: dose: 50.0 mg/kg/injection, schedule: Q01DX001 (ip), vehicle: saline 110 % of control | [6] 110 % of control | [7] 108 % of control

CCOC(Nc1ccc(Cl)cc1Cl)C(=O)c1ccccc1 (stereo not given)
inactive: [6] 97 % of control | [7] 101 % of control | [8] 101 % of control

CCCCCCC(=O)/C=C/c1ccccc1Cl
inactive: dose: 100.0 mg/kg/injection, schedule: Q01DX009 (ip), vehicle: other 98 % of control | dose: 200.0 mg/kg/injection, schedule: Q01DX009 (ip), vehicle: other 92 % of control | dose: 400.0 mg/kg/injection, schedule: Q01DX009 (ip), vehicle: other 93 % of control

CCOP(=O)(Nc1c(Cl)cc2c(c1Cl)Cc1cc([N+](=O)[O-])ccc1-2)OCC
inactive: dose: 50.0 mg/kg/injection, schedule: Q01DX001 (ip), vehicle: carboxymethylcellulose (CMC) 103 % of control | dose: 100.0 mg/kg/injection, schedule: Q01DX001 (ip), vehicle: carboxymethylcellulose (CMC) 100 % of control | dose: 200.0 mg/kg/injection, schedule: Q01DX001 (ip), vehicle: carboxymethylcellulose (CMC) 100 % of control | dose: 400.0 mg/kg/injection, schedule: Q01DX001 (ip), vehicle: carboxymethylcellulose (CMC) 103 % of control

CCN1C(=O)/C(=C\C=C2\SCCN2CI)OC1=S
inactive: dose: 177.6 mg/kg/injection, schedule: Q01DX001 (ip), vehicle: other 98 % of control and 89 % of control | dose: 266.8 mg/kg/injection, schedule: Q01DX001 (ip), vehicle: other 96 % of control | dose: 400.0 mg/kg/injection, schedule: Q01DX001 (ip), vehicle: other 96 % of control and 89 % of control | dose: 600.0 mg/kg/injection, schedule: Q01DX001 (ip), vehicle: other 103 % of control and 87 % of control

CC[N+]12CC[N+](CC)(CC1)C2
inactive: [6] 103 % of control | [7] 101 % of control | [8] 91 % of control

CC(C)N1CSC(=S)N(C(C)C)C1
inactive: dose: 100.0 mg/kg/injection, schedule: Q04DX002 (ip), vehicle: other 89 % of control | dose: 200.0 mg/kg/injection, schedule: Q04DX002 (ip), vehicle: other 100 % of control | dose: 400.0 mg/kg/injection, schedule: Q04DX002 (ip), vehicle: other 107 % of control

NC(=S)c1cccc(OCc2ccccc2)c1
inactive: [9] 106 % of control | [10] 92 % of control

CCCCCCCCc1ccc(C(=O)O)cc1
inactive: [4] 105 % of control | dose: 200.0 mg/kg/injection, schedule: Q04DX003 (ip), vehicle: Klucel (hydroxypropylcellulose) (HPC) 101 % of control | dose: 400.0 mg/kg/injection, schedule: Q04DX003 (ip), vehicle: Klucel (hydroxypropylcellulose) (HPC) 91 % of control

CC(O)c1ccc[n+]([O-])c1 (stereo not given)
inactive: dose: 100.0 mg/kg/injection, schedule: Q01DX009 (ip), vehicle: saline 93 % of control | dose: 200.0 mg/kg/injection, schedule: Q01DX009 (ip), vehicle: saline 96 % of control | dose: 400.0 mg/kg/injection, schedule: Q01DX009 (ip), vehicle: saline 96 % of control

CCOC(=O)C(C#N)c1cccc(C)c1 (stereo not given)
inactive: [1] 95 % of control | [2] 98 % of control

CSc1ncnc2c1ncn2NCC1OC(C)OCC1O (stereo not given)
inactive: [3] 96 % of control | [5] 98 % of control

CCCCCCCCCCCCCCCCS(=O)(=O)CCO
inactive: [9] 98 % of control | [10] 93 % of control | dose: 400.0 mg/kg/injection, schedule: Q01DX009 (ip), vehicle: saline with Tween-80 92 % of control

COc1ccc(C2OCC(c3ccccc3)O2)cc1 (stereo not given)
inactive: dose: 222.0 mg/kg/injection, schedule: Q01DX Z (ip), vehicle: methylcellulose (MC) 93 % of control | dose: 500.0 mg/kg/injection, schedule: Q01DX Z (ip), vehicle: methylcellulose (MC) 93 % of control
